# Test results as given in patent US8455501B2, “N-(5-cycloalkyl)-pyridin-3-yl carboxamides” (Hoffmann-La Roche Inc, priority 2011, dated 2013).
# What was measured:
# [1] = tested on: ABCA1 protein; assay: Detection of upregulation of ABCA1 protein in cells (ApoA-I binding, High Content Image Analysis); format: cell-based; settings: THP-1 macrophage cells, 24 hrs with compound
# Method: Detection of upregulation of ABCA1 protein in cells
# The ability of compounds of the invention to increase the level of ABCA1 protein is determined in replicate cultures of THP-1 macrophage cells in 96-well microplates. Cells are plated at an initial density of 100,000 cells/well in 100 μl medium and differentiated to adherent macrophages with the addition of PMA (100 nM) for 68 hrs in 10% fetal bovine serum, 3 μl/L of b-mercaptoethanol, RPMI-1640 medium. Then, cells are incubated with RPMI-1640 medium containing 1% FCS, 25 μg/ml acetylated LDL, for 24 hours at 37° C. Following incubation with acetylated LDL, cells are washed twice with 50 μl PBS and incubated with 100 μl of RPMI-1640 medium containing the compound of interest solubilized in DMSO for an additional 24 hrs. The final DMSO concentration in presence of cells is maintained at 0.5%. ApoA-I binding assay using High Content Image Analysis is initiated by replacing with fresh medium, RPMI without Phenol Red, 0.2% BSA containing AlexaFluor®647 labeled ApoA-I for 2 h/37° C./5% CO2. Then, cells are fixed with 4% Formaldehyde in PBS (15 min, RT). Following Nuclei are stained with Hoechst solution (3 μM PBS) and Cytoplasm with Cell Mask Blue (2 μg/ml PBS), 15 min, RT. Finally the stained cells are fixed with a second round of formaldehyde treatment. Fixed stained cells are washed and kept in PBS at 4° C. and can be read immediately until one month after preparation.
# The Alexa Fluor 647-labeled Apolipoprotein A-I (20 nM) was prepared as follows: Human recombinant Apolipoprotein A-I (ApoA-I) was exchanged to a buffer of 0.02 M NaHCO3 at pH 8.2 on an NAP desalting column (GE Healthcare) and brought to a concentration to 40 μM (1.13 mg/ml) by adjustment with the same buffer. The ApoA-I was fluorescently labeled by incubation with Alexa Fluor carboxylic acid succimidyl ester (Alexa Fluor 647, Invitrogen A-20006) at a 2:1 molar ratio (Alexa to ApoA-I) for 1 h under shaking at RT. The remaining unconjugated label was removed by buffer exchange to 0.02M NaHCO3 at pH 8.2.
# Imaging and data collection were performed on an OPERA confocal microplate imaging reader using a 20× water immersion objective and UV360 or 405 laser to identify the cell nuclei and a 635 laser to identify the fluorescent ApoA-I. Eight fields of view are captured per well. Image capture and analysis was performed with the Acapella software. Background fluorescence detected in control wells without ApoA-I was subtracted.
# Using XLfit3 program (ID Business Solutions Ltd. UK), the model 205 for Dose Response One Site is used to calculate the EC50 values. […] Particularly, the compounds of the present invention have EC50 values in a range of 0.1 μM to 3 μM.
# [2] = biological target: T1, human CB1 receptor (Homo sapiens, UniProt P21554); assay: CB1 receptor affinity, displacement of [3H]-CP-55,940; format: binding; settings: HEK cell membranes, radioligand [3H]-CP-55,940
# T1 construct: expressed in transfected cells; host or cells: human embryonic kidney (HEK) cells, Semliki Forest Virus system, membrane preparation
# T1 sequence (P21554 whole entry): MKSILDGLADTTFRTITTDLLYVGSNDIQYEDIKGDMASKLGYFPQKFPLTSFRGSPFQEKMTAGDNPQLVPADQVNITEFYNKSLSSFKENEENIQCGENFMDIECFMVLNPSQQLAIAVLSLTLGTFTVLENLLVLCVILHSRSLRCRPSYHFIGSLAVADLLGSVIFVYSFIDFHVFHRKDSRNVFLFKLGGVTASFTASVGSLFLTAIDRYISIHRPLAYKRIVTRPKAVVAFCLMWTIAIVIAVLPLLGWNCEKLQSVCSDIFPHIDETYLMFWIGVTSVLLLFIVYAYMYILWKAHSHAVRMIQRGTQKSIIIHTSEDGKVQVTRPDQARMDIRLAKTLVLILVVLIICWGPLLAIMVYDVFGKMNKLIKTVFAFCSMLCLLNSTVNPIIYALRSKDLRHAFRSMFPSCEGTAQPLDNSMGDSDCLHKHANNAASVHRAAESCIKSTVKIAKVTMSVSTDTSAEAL
# Method: (§1) CB1 and CB2 Receptor Affinity
# (§2) The affinity of the compounds of the invention for cannabinoid receptors was determined using membrane preparations of human embryonic kidney (HEK) cells in which the human CB1 receptor is transiently transfected using a Semliki Forest Virus system in conjunction with [3H]-CP-55,940 as radioligand. After incubation of freshly prepared cell membrane preparation with the [^3H]-ligand, with or without addition of compounds of the invention, separation of bound and free ligand was performed by filtration over glass fiber filters. Radioactivity on the filter was measured by scintillation counting.
# (§3) The ability of the compounds to displace the radioligand [^3H]-CP-55,940 was measured at a concentration of 10 μM and values provided as [% inhibition @10 μM] both for the CB1 and CB2 receptor assay, The lower % inhibition is, the lower the likelihood of side effects based on CB1 or CB2 receptor inhibition is.
# [3] = biological target: T2, human CB2 receptor (Homo sapiens, UniProt P34972); assay: CB2 receptor affinity, displacement of [3H]-CP-55,940; format: binding; settings: HEK cell membranes, radioligand [3H]-CP-55,940
# T2 construct: expressed in transfected cells; host or cells: human embryonic kidney (HEK) cells, Semliki Forest Virus system, membrane preparation
# T2 sequence (P34972 whole entry): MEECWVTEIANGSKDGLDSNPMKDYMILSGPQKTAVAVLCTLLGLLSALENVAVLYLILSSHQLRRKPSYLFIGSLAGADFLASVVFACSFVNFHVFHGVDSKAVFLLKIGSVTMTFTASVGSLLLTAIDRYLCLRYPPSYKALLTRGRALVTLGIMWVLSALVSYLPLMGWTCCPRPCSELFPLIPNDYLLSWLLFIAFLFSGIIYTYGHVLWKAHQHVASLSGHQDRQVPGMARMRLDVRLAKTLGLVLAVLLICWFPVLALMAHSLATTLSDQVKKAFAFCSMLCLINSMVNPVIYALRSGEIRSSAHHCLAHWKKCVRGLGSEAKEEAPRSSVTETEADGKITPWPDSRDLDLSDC
# Method: as §1
# as §2, with “cannabinoid CB2” for “cannabinoid”, “CB2” for “CB1”, “[^3H]-CP-55,940” for “[3H]-CP-55,940”
# as §3
SMILES,% increase of ABCA1 at 3 μM [1] [% @ 3 μM],inhibition at 10 µM [2] [%],inhibition at 10 µM [3] [%]
"COc1cncc(C(=O)Nc2cnc(OCC(F)(F)F)c(C3CCCC3)c2)c1 [Example 1, N-[5-cyclopentyl-6-(2,2,2-trifluoro-ethoxy)-pyridin-3-yl]-5-methoxy-nicotinamide]",>45,4,-9
"Cc1cc(C(=O)Nc2cnc(OCC(F)(F)F)c(C3CCCC3)c2)[nH]n1 [Example 2, 5-methyl-2H-pyrazole-3-carboxylic acid [5-cyclopentyl-6-(2,2,2-trifluoro-ethoxy)-pyridin-3-yl]-amide]",>45,22,-12
"Cc1ocnc1C(=O)Nc1cnc(OCC(F)(F)F)c(C2CCCC2)c1 [Example 3, 5-methyl-oxazole-4-carboxylic acid [5-cyclopentyl-6-(2,2,2-trifluoro-ethoxy)-pyridin-3-yl]-amide]",>45,26,0
"O=C(Nc1cnc(OCC(F)(F)F)c(C2CCCC2)c1)c1cccnc1 [Example 4, N-[5-cyclopentyl-6-(2,2,2-trifluoro-ethoxy)-pyridin-3-yl]-nicotinamide]",>45,34,2
"O=C(Nc1cnc(OCC(F)(F)F)c(C2CCCC2)c1)c1ccccn1 [Example 5, pyridine-2-carboxylic acid [5-cyclopentyl-6-(2,2,2-trifluoro-ethoxy)-pyridin-3-yl]-amide]",>45,28,-8
"O=C(Nc1cnc(OCC(F)(F)F)c(C2CCCC2)c1)c1ccccc1 [Example 6, N-[5-cyclopentyl-6-(2,2,2-trifluoro-ethoxy)-pyridin-3-yl]-benzamide]",>45,40,-5
"O=C(Nc1cnc(OCC(F)(F)F)c(C2CCCC2)c1)c1cncnc1 [Example 7, pyrimidine-5-carboxylic acid [5-cyclopentyl-6-(2,2,2-trifluoro-ethoxy)-pyridin-3-yl]-amide]",>45,21,-12
"O=C(Nc1cnc(OCC(F)(F)F)c(C2CCCCC2)c1)c1cccnc1 [Example 8, N-[5-cyclohexyl-6-(2,2,2-trifluoro-ethoxy)-pyridin-3-yl]-nicotinamide]",>45,28,-13
"Cc1cc(C(=O)Nc2cnc(OCC(F)(F)F)c(C3CCCCC3)c2)[nH]n1 [Example 9, 5-methyl-2H-pyrazole-3-carboxylic acid [5-cyclohexyl-6-(2,2,2-trifluoro-ethoxy)-pyridin-3-yl]-amide]",>45,27,-9
"Cc1ocnc1C(=O)Nc1cnc(OCC(F)(F)F)c(C2CCCCC2)c1 [Example 10, 5-methyl-oxazole-4-carboxylic acid [5-cyclohexyl-6-(2,2,2-trifluoro-ethoxy)-pyridin-3-yl]-amide]",>45,13,-8
"O=C(Nc1cnc(OCC(F)(F)F)c(C2CCCCC2)c1)c1ccccn1 [Example 11, pyridine-2-carboxylic acid [5-cyclohexyl-6-(2,2,2-trifluoro-ethoxy)-pyridin-3-yl]-amide]",>45,33,3
"COc1cncc(C(=O)Nc2cnc(OCC(F)(F)F)c(C3CCCCC3)c2)c1 [Example 12, N-[5-cyclohexyl-6-(2,2,2-trifluoro-ethoxy)-pyridin-3-yl]-5-methoxy-nicotinamide]",>45,19,-13
"O=C(Nc1cnc(OCC(F)(F)F)c(C2CCCCC2)c1)c1ccccc1 [Example 13, N-[5-cyclohexyl-6-(2,2,2-trifluoro-ethoxy)-pyridin-3-yl]-benzamide]",>45,38,-13
